{"source": "paper PMC4627230", "about": "“Identification of TAX2 peptide as a new unpredicted anti-cancer agent” (Oncotarget, 2015)", "key": {"BALB/C nu/nu mice": {"test_system": "BALB/C nu/nu mice", "test": "Tolerability in xenograft-bearing mice", "type": "in vivo, mouse", "experimental": "For the subcutaneous melanoma tumor model, suspensions of B16F1 cells (2.5 × 10^5 cells in 100 μL RPMI-1640 medium) were subcutaneously injected into the left flank of different randomized series of syngeneic C57BL/6 mice (n = 8–10 per group), as previously described. Intraperitoneal administrations of peptide (10 mg/kg mouse weight) or controls (physiological serum 0.9% (w/v) NaCl or a scrambled peptide) were performed at days 3, 5 and 7. In human pancreatic carcinoma xenograft experiments, 3 × 10^6 MIA PaCa-2 cells/mouse were implanted subcutaneously into the left flank of BALB/C athymic nude mice, then TAX2 intraperitoneal treatments (10 mg/kg mouse weight) were performed 3 times a week during 4 weeks starting at day 10 after tumor cells inoculation. Tumor volume was determined according to v = 0.5 A × B^2, where A denotes the largest dimension of the tumor and B represents the smallest dimension. At days indicated, mice were sacrificed and tumors were surgically extracted and fixed in 4% paraformaldehyde for further morphologic studies and for magnetic resonance imaging, or frozen for immunohistochemistry. Mice were also weighed every 2–3 days and daily checked for any modification in their behavior. […]"}, "TSP-1 binding to VEGF": {"test_system": "TSP-1 binding to VEGF", "test": "Co-immunoprecipitation TSP-1 with VEGF", "type": "cell-based, human", "settings": "HUVECs, 100 μM; conditioned media", "experimental": "Protein lysates prepared in ice-cold lysis buffer or conditioned media were subjected to immunoprecipitation assay using the Pierce Co-IP kit (Thermo Fisher Scientific) according to the manufacturer's protocol. 10 μg of antibody (anti CD47, anti-CD36, anti-FGF2, anti-VEGF, anti-β1 integrin and anti-LRP1 heavy chain) or non-specific IgGs were incubated with the delivered resin and covalently coupled. The antibody-coupled resin was incubated with whole HUVEC protein lysate overnight at 4°C under gentle agitation (no cross-linker was used to stabilize protein complexes before HUVEC lysis). Then the resin was washed and the protein complexes bound to the antibody were eluted. Immunoprecipitated protein complexes were solubilized under denaturing and reducing conditions, heated to 100°C for 5 min and analyzed by immunoblotting as described above. […]\nreceptors. HUVECs were treated with TAX2 (100 μM) or scrambled peptide (Ctrl, 100 μM). FGF-2 and VEGF were immunoprecipitated from conditioned media using anti-FGF-2 (clone C-18) and anti-VEGF (clone C-1), respectively. β1 integrin and LRP-1 were immunoprecipitated from total protein lysates using anti-β1 integrin (clone BV7) and anti-LRP-1 heavy chain (clone 8G1), respectively. […] Histogram represents the quantification of relative ligand-bound TSP-1 under TAX2 treatment as compared to control. […]"}, "[1]": {"test_system": "tumor vasculature of MIA PaCa-2 xenograft in BALB/C nu/nu mice", "test": "MIA PaCa-2 xenograft vascularization (μCT, dissection)", "type": "in vivo, human tumor xenograft in mouse", "settings": "10 mg/kg i.p. 3 times a week for 4 weeks", "experimental": "For the subcutaneous melanoma tumor model, suspensions of B16F1 cells (2.5 × 10^5 cells in 100 μL RPMI-1640 medium) were subcutaneously injected into the left flank of different randomized series of syngeneic C57BL/6 mice (n = 8–10 per group), as previously described. Intraperitoneal administrations of peptide (10 mg/kg mouse weight) or controls (physiological serum 0.9% (w/v) NaCl or a scrambled peptide) were performed at days 3, 5 and 7. In human pancreatic carcinoma xenograft experiments, 3 × 10^6 MIA PaCa-2 cells/mouse were implanted subcutaneously into the left flank of BALB/C athymic nude mice, then TAX2 intraperitoneal treatments (10 mg/kg mouse weight) were performed 3 times a week during 4 weeks starting at day 10 after tumor cells inoculation. Tumor volume was determined according to v = 0.5 A × B^2, where A denotes the largest dimension of the tumor and B represents the smallest dimension. At days indicated, mice were sacrificed and tumors were surgically extracted and fixed in 4% paraformaldehyde for further morphologic studies and for magnetic resonance imaging, or frozen for immunohistochemistry. Mice were also weighed every 2–3 days and daily checked for any modification in their behavior. Loss of 15% body weight was an indication for euthanasia as well as severe tumor necrosis, as it was sometimes associated with skin ulceration that would result in loss of body fluid and/or infection.\nAnimals were anesthetized by isoflurane (Forene, Abbott France, Rungis, France) inhalation (3% for induction and 1–1.5% for maintenance) and then after placed in a carbon fibers bed. CT images were acquired on a dedicated small animal μCT scanner (Skyscan 1076, Bruker, Kontich, Belgium) while continuously rotating the camera by 180° with the following parameters: 50 kV, 0.5 mm Al filter, 200 μA source current, 35 μm isotropic resolution, 180 ms exposure time, 4 projection images per 0.7° rotation step and a retrospective synchronization. […] Analysis of reconstructed images and quantification of the vascular network were performed using Amira 5.4.3 software."}, "TSP-1": {"test_system": "TSP-1", "test": "Microscale thermophoresis", "type": "binding", "settings": "data not shown"}}}
{"sequence": "CEVSQLLKGDAC (disulfide) [TAX2, CD47-derived cyclic disulfide dodecapeptide …]", "values": [{"measurement": "clinical sign or weight loss", "setting": "BALB/C nu/nu mice; 10 mg/kg i.p. 3 times a week for 4 weeks", "value": "mice did not exhibit any other clinical sign or weight loss"}, {"measurement": "thrombosis, hemorrhage or embolism in xenograft-bearing mice", "setting": "BALB/C nu/nu mice; healthy organs, human pancreatic carcinoma model", "value": "no signs of thrombosis, hemorrhage or embolism were observed in healthy organs"}, {"measurement": "TSP-1 binding to VEGF", "setting": "TSP-1 binding to VEGF", "value": "does not affect"}, {"measurement": "tumor vasculature in dissections, day 38", "setting": "[1]", "value": "decreased tumor vasculature"}, {"measurement": "tumor-associated vascular network in 3D reconstruction, day 38", "setting": "[1]", "value": "strongly inhibit tumor-associated vascular network"}, {"measurement": "tumor vascularization until day 38", "setting": "[1]; μCT, representative of n = 5", "value": "striking alteration of tumor vascularization"}, {"measurement": "binding to TSP-1 by microscale thermophoresis", "setting": "TSP-1", "value": "confirmed"}]}
